Active and inactive are the calls of the source. How the calls were made is not given here.
Test system: CCRIS mutagenicity, Ames/micronucleus/aberration tests
Test: CCRIS mutagenicity studies
Text: The CCRIS database contains chemical records with carcinogenicity, mutagenicity, tumor promotion, and tumor inhibition test results. It was developed by the National Cancer Institute (NCI). Data are derived from studies cited in primary journals, current awareness tools, NCI reports, and other sources. Test results have been reviewed by experts in carcinogenesis and mutagenesis.
CCRIS provides historical information from the years 1985 - 2011. It is no longer updated.
This is an archive assay for CCRIS mutagenicity studies.

[1] = Test System: AMES SALMONELLA TYPHIMURIUM, Strain/Indicator: TA98, Metabolic Activation: NONE, Method: STANDARD PLATE
[2] = Test System: AMES SALMONELLA TYPHIMURIUM, Strain/Indicator: TA100, Metabolic Activation: NONE, Method: STANDARD PLATE
[3] = Test System: AMES SALMONELLA TYPHIMURIUM, Strain/Indicator: TA1535, Metabolic Activation: NONE, Method: STANDARD PLATE
[4] = Test System: AMES SALMONELLA TYPHIMURIUM, Strain/Indicator: TA1537, Metabolic Activation: NONE, Method: STANDARD PLATE
[5] = Test System: AMES SALMONELLA TYPHIMURIUM, Strain/Indicator: TA98, Metabolic Activation: RAT, LIVER, S-9, AROCLOR 1254, Method: STANDARD PLATE
[6] = Test System: AMES SALMONELLA TYPHIMURIUM, Strain/Indicator: TA100, Metabolic Activation: RAT, LIVER, S-9, AROCLOR 1254, Method: STANDARD PLATE
[7] = Test System: AMES SALMONELLA TYPHIMURIUM, Strain/Indicator: TA1535, Metabolic Activation: RAT, LIVER, S-9, AROCLOR 1254, Method: STANDARD PLATE
[8] = Test System: AMES SALMONELLA TYPHIMURIUM, Strain/Indicator: TA1537, Metabolic Activation: RAT, LIVER, S-9, AROCLOR 1254, Method: STANDARD PLATE

Row | SMILES | mutagenic call [1] | mutagenic call [2] | mutagenic call [3] | mutagenic call [4] | mutagenic call [5] | mutagenic call [6] | mutagenic call [7] | mutagenic call [8] | also measured
1 | N#Cc1cc(I)c(O)c([N+](=O)[O-])c1 | inactive; negative | inactive; negative | inactive; negative | inactive; negative |  |  |  |  | mutagenic call (End Point: In vivo chromosomal aberrations, Test System: Bone marrow cells, Species: Mouse, Strain/Sex: Swiss/Male, Route: Intraperitoneal): active; positive (structural changes); mutagenic call (Test System: AMES SALMONELLA TYPHIMURIUM, Strain/Indicator: TA98, Metabolic Activation: RAT, LIVER, S-9, KANECHLOR 400, Method: STANDARD PLATE): inactive; negative; mutagenic call (Test System: AMES SALMONELLA TYPHIMURIUM, Strain/Indicator: TA100, Metabolic Activation: RAT, LIVER, S-9, KANECHLOR 400, Method: STANDARD PLATE): inactive; negative; mutagenic call (Test System: AMES SALMONELLA TYPHIMURIUM, Strain/Indicator: TA1535, Metabolic Activation: RAT, LIVER, S-9, KANECHLOR 400, Method: STANDARD PLATE): inactive; negative; mutagenic call (Test System: AMES SALMONELLA TYPHIMURIUM, Strain/Indicator: TA1537, Metabolic Activation: RAT, LIVER, S-9, KANECHLOR 400, Method: STANDARD PLATE): inactive; negative; mutagenic call (Test System: AMES SALMONELLA TYPHIMURIUM, Strain/Indicator: TA1538, Metabolic Activation: RAT, LIVER, S-9, KANECHLOR 400, Method: STANDARD PLATE): inactive; negative
2 | Nc1ccc(Sc2ccc([N+](=O)[O-])cc2)cc1 | active; positive |  |  |  | active; positive |  |  |  | 
3 | COc1nncc2ncccc12 |  |  |  |  |  |  |  |  | mutagenic call (Test System: AMES SALMONELLA TYPHIMURIUM, Strain/Indicator: TA98, Metabolic Activation: NONE, Method: PREINCUBATION): inactive; negative; mutagenic call (Test System: AMES SALMONELLA TYPHIMURIUM, Strain/Indicator: TA98, Metabolic Activation: RAT, LIVER, S-9, PCB, Method: PREINCUBATION): inactive; negative; mutagenic call (Test System: AMES SALMONELLA TYPHIMURIUM, Strain/Indicator: TA100, Metabolic Activation: NONE, Method: PREINCUBATION): inactive; negative; mutagenic call (Test System: AMES SALMONELLA TYPHIMURIUM, Strain/Indicator: TA100, Metabolic Activation: RAT, LIVER, S-9, PCB, Method: PREINCUBATION): inactive; negative
4 | Cc1ccc(N=Nc2c(O)ccc3ccccc23)cc1C | inactive; negative | inactive; negative |  |  |  |  |  |  | mutagenic call (Test System: AMES SALMONELLA TYPHIMURIUM, Strain/Indicator: TA98, Metabolic Activation: RAT, LIVER, S-9, Method: STANDARD PLATE): inactive; negative; mutagenic call (Test System: AMES SALMONELLA TYPHIMURIUM, Strain/Indicator: TA100, Metabolic Activation: RAT, LIVER, S-9, Method: STANDARD PLATE): inactive; negative
5 | C[C@]12CC[C@H](OC(=O)COc3ccc(N(CCCl)CCCl)cc3)C[C@@H]1CC[C@@H]1[C@@H]2CC[C@]2(C)NC(=O)CC[C@@H]12 | inactive; negative | active; positive | active; positive | inactive; negative | inactive; negative | active; positive | active; positive | inactive; negative | mutagenic call (Test System: AMES SALMONELLA TYPHIMURIUM, Strain/Indicator: TA1535, Metabolic Activation: S-9, Method: STANDARD PLATE): active; positive; mutagenic call (Test System: AMES SALMONELLA TYPHIMURIUM, Strain/Indicator: TA1537, Metabolic Activation: S-9, Method: STANDARD PLATE): inactive; negative
6 | CCC(=O)n1ncc(Cl)c(Cl)c1=O | inactive; negative | inactive; negative | inactive; negative | inactive; negative | inactive; negative | inactive; negative | inactive; negative | inactive; negative | 
